# Measured values published in PMC7730235, “Discovery of a Novel Class of Covalent Dual Inhibitors Targeting the Protein Kinases BMX and BTK” (International Journal of Molecular Sciences, 2020).
# pIC50: −log10 of the molar value.
# What was measured:
# BLK = target: T1, BLK (Homo sapiens, UniProt P51451); test: Radiometric kinase assay (Reaction Biology HotSpot); assay type: biochemical; settings: [ATP] = 10 μM; for remaining activity at 0.2 µM: 200 nM compound, duplicate mean, read-out: Residual Activity @ 200 nM, BLK
# T1 construct: purchased Reaction Biology Corporation
# T1 sequence (P51451 whole entry): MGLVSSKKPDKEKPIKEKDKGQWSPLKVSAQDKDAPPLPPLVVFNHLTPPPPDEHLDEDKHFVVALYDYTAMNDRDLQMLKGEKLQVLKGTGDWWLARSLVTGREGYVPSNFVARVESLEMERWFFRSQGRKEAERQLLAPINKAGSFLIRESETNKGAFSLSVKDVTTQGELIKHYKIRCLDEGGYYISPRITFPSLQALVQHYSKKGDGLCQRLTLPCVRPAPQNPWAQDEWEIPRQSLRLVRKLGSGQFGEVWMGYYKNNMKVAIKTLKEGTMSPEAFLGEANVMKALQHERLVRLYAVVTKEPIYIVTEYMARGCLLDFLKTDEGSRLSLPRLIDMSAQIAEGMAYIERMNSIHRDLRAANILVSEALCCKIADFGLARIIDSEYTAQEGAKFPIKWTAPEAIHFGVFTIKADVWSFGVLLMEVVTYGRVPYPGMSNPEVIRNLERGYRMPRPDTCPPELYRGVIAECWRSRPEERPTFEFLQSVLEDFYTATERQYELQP
# Experimental: (§1) If not mentioned differently, in vitro profiling of compounds was performed at Reaction Biology Corporation using the HotSpot™ assay platform.
# EGFR = target: T2, EGFR (Homo sapiens, UniProt P00533); test: as above; assay type: biochemical; settings: [ATP] = 10 μM; for remaining activity at 0.2 µM: 200 nM compound, duplicate mean, read-out: Residual Activity @ 200 nM, EGFR; for pIC50: radiometric HotSpot, five-dose singlicate
# T2 construct: purchased Reaction Biology Corporation
# T2 sequence (P00533 25-1210): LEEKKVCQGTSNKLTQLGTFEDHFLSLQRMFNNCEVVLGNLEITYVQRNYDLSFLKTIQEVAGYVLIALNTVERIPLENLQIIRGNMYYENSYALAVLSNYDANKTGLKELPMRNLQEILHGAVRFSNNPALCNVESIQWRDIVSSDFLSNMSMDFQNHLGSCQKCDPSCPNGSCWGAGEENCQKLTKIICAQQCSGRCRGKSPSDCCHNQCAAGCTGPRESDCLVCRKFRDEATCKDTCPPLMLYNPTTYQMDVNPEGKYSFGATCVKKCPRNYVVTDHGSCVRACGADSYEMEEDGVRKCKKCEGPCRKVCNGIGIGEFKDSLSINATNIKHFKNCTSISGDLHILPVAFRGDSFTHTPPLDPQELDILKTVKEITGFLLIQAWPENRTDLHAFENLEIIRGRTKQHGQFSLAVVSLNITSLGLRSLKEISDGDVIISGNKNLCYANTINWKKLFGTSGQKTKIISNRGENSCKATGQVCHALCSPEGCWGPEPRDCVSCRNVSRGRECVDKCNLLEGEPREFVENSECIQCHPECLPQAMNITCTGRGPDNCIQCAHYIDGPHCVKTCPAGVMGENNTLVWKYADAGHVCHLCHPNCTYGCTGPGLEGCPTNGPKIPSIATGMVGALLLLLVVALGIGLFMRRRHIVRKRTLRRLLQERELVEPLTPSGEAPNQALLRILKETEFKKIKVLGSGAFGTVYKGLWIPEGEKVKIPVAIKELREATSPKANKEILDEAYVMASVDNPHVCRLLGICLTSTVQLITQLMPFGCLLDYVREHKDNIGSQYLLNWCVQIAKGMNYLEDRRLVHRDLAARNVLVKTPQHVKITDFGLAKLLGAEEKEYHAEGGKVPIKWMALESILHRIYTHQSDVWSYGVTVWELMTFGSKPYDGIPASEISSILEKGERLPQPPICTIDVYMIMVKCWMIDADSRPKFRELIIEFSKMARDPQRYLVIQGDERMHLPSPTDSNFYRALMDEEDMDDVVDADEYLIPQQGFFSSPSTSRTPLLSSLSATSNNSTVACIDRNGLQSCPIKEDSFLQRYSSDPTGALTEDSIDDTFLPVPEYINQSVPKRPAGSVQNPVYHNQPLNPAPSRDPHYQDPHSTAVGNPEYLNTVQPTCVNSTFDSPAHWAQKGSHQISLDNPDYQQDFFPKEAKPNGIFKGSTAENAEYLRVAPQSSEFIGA
# Experimental: as §1
# HER2 = target: T3, HER2 (Homo sapiens, UniProt P04626); test: as above; assay type: biochemical; settings: [ATP] = 10 μM; for remaining activity at 0.2 µM: 200 nM compound, duplicate mean, read-out: Residual Activity @ 200 nM, HER2
# T3 construct: purchased Reaction Biology Corporation
# T3 sequence (P04626 23-1255): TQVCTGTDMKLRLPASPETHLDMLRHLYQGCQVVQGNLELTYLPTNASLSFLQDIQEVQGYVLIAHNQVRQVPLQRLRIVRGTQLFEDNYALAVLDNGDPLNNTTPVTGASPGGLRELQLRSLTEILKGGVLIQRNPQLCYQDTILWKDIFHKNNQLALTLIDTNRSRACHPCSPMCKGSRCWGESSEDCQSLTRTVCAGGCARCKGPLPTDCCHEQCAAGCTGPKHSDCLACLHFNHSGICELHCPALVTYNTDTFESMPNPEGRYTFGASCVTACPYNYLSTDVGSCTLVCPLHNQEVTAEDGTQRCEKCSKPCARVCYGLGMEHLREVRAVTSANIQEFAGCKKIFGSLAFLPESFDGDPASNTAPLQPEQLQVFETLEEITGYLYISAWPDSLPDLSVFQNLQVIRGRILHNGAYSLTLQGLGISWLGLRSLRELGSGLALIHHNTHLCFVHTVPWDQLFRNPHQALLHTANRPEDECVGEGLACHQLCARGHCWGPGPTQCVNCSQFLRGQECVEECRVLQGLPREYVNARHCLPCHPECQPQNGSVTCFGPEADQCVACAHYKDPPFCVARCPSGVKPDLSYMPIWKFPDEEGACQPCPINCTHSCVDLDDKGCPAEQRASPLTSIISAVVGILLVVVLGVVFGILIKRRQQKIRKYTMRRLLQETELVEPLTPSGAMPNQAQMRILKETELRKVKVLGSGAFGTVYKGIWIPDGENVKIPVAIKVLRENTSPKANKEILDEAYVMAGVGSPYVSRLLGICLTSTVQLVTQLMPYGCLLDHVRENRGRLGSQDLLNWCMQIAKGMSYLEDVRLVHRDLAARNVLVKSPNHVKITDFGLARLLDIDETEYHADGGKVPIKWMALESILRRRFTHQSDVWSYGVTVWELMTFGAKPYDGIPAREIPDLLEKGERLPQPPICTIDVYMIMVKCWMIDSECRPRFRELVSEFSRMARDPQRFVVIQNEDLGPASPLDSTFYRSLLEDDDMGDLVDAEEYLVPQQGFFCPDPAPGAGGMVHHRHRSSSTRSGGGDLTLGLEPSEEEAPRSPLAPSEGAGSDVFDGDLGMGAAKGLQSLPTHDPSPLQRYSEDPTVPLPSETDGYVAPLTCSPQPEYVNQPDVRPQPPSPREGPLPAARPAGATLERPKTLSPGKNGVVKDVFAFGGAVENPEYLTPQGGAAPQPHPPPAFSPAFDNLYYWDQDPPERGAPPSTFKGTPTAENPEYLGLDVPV
# Experimental: as §1
# HER4 = target: T4, HER4 (Homo sapiens, UniProt Q15303); test: as above; assay type: biochemical; settings: [ATP] = 10 μM; for remaining activity at 0.2 µM: 200 nM compound, duplicate mean, read-out: Residual Activity @ 200 nM, HER4
# T4 construct: purchased Reaction Biology Corporation
# T4 sequence (Q15303 26-1308): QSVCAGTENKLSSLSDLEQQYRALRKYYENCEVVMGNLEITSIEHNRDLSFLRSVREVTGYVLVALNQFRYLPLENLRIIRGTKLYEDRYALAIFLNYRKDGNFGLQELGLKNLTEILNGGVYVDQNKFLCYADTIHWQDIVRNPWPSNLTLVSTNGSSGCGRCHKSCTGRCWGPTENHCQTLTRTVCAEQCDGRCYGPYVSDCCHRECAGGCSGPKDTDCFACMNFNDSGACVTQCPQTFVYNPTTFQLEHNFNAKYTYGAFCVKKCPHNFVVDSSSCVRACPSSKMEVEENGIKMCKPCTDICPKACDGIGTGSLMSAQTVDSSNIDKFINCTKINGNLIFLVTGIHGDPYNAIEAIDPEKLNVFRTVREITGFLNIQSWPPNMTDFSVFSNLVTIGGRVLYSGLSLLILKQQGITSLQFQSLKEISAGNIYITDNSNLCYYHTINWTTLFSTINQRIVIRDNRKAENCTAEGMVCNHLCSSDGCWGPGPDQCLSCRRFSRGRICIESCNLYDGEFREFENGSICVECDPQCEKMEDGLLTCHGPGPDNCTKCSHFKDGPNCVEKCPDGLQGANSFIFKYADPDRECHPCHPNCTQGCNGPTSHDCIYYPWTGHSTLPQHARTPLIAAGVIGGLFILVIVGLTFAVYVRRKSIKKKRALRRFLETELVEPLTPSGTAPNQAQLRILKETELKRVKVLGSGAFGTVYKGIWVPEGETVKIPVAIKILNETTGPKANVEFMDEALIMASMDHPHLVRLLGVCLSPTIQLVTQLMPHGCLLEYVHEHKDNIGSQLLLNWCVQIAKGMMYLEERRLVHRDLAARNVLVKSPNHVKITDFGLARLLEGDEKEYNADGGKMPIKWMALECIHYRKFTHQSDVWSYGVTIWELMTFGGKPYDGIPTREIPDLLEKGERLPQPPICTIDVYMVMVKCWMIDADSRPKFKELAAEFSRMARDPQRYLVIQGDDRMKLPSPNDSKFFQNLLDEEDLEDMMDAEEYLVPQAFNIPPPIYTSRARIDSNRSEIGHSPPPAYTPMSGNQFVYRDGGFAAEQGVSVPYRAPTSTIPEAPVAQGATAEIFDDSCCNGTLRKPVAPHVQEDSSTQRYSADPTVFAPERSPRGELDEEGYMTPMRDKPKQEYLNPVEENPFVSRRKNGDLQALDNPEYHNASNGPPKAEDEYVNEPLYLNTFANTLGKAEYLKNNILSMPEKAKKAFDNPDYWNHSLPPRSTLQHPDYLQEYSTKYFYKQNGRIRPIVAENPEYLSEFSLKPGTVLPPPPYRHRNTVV
# Experimental: as §1
# ITK = target: T5, ITK (Homo sapiens, UniProt Q08881); test: as above; assay type: biochemical; settings: 200 nM compound, duplicate mean, [ATP] = 10 μM; read-out: Residual Activity @ 200 nM, ITK
# T5 construct: purchased Reaction Biology Corporation
# T5 sequence (Q08881 1-620): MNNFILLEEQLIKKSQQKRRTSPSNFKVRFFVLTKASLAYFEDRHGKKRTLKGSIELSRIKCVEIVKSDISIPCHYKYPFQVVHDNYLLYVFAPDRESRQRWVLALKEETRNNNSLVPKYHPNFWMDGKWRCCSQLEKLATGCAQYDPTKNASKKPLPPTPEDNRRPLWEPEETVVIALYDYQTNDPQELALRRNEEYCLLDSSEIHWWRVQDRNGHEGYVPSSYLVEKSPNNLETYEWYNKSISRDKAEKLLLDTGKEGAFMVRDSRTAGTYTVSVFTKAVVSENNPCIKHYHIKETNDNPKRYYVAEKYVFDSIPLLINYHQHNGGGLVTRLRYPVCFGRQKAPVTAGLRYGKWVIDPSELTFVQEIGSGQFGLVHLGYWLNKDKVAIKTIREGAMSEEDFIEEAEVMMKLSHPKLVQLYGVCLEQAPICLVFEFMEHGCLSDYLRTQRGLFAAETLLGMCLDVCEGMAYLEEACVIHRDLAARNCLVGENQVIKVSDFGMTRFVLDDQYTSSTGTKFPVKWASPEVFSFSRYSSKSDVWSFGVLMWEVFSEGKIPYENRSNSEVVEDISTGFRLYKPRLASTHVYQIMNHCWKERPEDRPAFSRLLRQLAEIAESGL
# Experimental: as §1
# JAK3 = target: T6, JAK3 (Homo sapiens, UniProt P52333); test: as above; assay type: biochemical; settings: [ATP] = 10 μM; for remaining activity at 0.2 µM: 200 nM compound, duplicate mean, read-out: Residual Activity @ 200 nM, JAK3; for pIC50: radiometric HotSpot, five-dose singlicate
# T6 construct: purchased Reaction Biology Corporation
# T6 sequence (P52333 1-1124): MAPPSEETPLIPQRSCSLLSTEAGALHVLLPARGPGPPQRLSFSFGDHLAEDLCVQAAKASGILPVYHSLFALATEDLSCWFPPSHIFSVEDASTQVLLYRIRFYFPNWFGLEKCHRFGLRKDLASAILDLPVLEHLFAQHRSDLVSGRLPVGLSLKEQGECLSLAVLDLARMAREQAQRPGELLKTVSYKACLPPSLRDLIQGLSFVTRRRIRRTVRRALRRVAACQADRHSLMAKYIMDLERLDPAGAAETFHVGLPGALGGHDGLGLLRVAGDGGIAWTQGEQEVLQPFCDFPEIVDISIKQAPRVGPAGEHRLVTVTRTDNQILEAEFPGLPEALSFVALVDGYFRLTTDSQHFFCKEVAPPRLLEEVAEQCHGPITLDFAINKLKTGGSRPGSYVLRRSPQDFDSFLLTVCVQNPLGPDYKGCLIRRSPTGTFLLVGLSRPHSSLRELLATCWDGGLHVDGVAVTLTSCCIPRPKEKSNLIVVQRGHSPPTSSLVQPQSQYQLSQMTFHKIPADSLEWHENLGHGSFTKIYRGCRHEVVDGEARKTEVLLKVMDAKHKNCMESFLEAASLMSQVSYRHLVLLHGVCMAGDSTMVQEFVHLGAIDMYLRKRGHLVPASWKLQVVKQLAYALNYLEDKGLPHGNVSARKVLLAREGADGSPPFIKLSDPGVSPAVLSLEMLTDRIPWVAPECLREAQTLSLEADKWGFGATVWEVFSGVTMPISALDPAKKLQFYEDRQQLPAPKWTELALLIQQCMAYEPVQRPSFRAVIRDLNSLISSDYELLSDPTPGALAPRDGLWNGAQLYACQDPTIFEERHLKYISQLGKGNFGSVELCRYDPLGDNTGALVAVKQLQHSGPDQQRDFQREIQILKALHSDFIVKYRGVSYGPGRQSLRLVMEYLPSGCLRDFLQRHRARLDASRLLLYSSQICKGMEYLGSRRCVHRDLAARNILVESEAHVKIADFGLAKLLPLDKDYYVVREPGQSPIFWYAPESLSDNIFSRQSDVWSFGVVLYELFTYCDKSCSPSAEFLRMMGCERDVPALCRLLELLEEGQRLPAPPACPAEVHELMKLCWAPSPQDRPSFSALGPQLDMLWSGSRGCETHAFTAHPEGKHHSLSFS
# Experimental: as §1
# kinase domain of BMX = target: T7, kinase domain of BMX (Homo sapiens, UniProt P51813); test: Mass spectrometric investigation of covalent binding to BMX (ESI-TOF); settings: 4 °C; for BMX covalent adduct fraction, 30 min / BMX covalent adduct fraction, 60 min / BMX covalent adduct fraction, 120 min / BMX covalent adduct fraction, 240 min / native (unmodified) BMX fraction, 30 min / native (unmodified) BMX fraction, 60 min / native (unmodified) BMX fraction, 120 min / native (unmodified) BMX fraction, 240 min: 1.5-fold molar excess of inhibitor; for covalent labeling of BMX (in words): complete labeling refers to 30 min
# T7 construct: The kinase domains of JAK3 and BMX at 2 μM
# T7 sequence (P51813 417-675 limits assumed): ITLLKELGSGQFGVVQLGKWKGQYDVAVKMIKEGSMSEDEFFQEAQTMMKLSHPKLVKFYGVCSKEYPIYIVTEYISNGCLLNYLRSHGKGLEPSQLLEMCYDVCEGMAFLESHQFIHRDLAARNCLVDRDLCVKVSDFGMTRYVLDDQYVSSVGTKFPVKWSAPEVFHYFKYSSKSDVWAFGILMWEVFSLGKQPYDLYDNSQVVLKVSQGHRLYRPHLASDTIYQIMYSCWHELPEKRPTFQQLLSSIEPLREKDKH
# Experimental: The kinase domain of BMX was diluted to 0.05 mM with buffer containing 20 mM Tris pH 8.0, 200 mM NaCl, 0.5 mM TCEP (pH 7.0) and was subsequently mixed with 0.075 mM inhibitors (ratio of protein to inhibitor of 1:1.5). The mixture was incubated at 4°C. The samples were taken at different time points, the reaction stopped by diluting the sample with a 200-fold excess of 1% formic acid. The denatured protein and the adducts were assessed using electrospray time-of-flight (ESI-TOF) mass spectrometry.
# [1] = radiometric HotSpot, five-dose singlicate
remaining activity at 0.2 µM (BLK),remaining activity at 0.2 µM (EGFR),pIC50 (EGFR),remaining activity at 0.2 µM (HER2),remaining activity at 0.2 µM (HER4),remaining activity at 0.2 µM (ITK),remaining activity at 0.2 µM (JAK3),pIC50 (JAK3),"BMX covalent adduct fraction, 30 min (kinase domain of BMX)","BMX covalent adduct fraction, 60 min (kinase domain of BMX)","BMX covalent adduct fraction, 120 min (kinase domain of BMX)","BMX covalent adduct fraction, 240 min (kinase domain of BMX)",covalent labeling of BMX (in words) (kinase domain of BMX; 1.5-fold molar excess),"native (unmodified) BMX fraction, 30 min (kinase domain of BMX)","native (unmodified) BMX fraction, 60 min (kinase domain of BMX)","native (unmodified) BMX fraction, 120 min (kinase domain of BMX)","native (unmodified) BMX fraction, 240 min (kinase domain of BMX)",Compound,also measured
8.6%,14.9%,7.92,41.1%,4.7%,94%,> 100%,< 5.00,100%,100%,100%,100%,complete labeling,,,,,"C=CC(=O)Nc1cccc(-c2c[nH]c3ncc(NC(=O)c4cccs4)cc23)c1 [Compound 12c, N-(3-(3-acrylamidophenyl)-1H-pyrrolo[2,3-b]pyridin-5-yl)thiophene-2-carboxamide]",pIC50 (BLK; [1]): 7.52; pIC50 (HER2; [1]): 6.93; pIC50 (HER4; [1]): 8.07
,,,,,,,,60%,67%,89%,97%,,40%,33%,11%,3%,"C=CC(=O)Nc1cccc(-c2c[nH]c3ncc(C(=O)NC4CCCC4)cc23)c1 [Compound 11a, 3-(3-acrylamidophenyl)-N-cyclopentyl-1H-pyrrolo[2,3-b]pyridine-5-carboxamide]",exposure required to approach full target modification (kinase domain of BMX; 1.5-fold molar excess): 240 min
95.1%,> 100%,,> 100%,95.4%,,,,,,,,no modification was detectable,100%,100%,100%,100%,"CCC(=O)Nc1cccc(-c2c[nH]c3ncc(NC(=O)C4CCCC4)cc23)c1 [Compound 12b, N-(3-(3-propionamidophenyl)-1H-pyrrolo[2,3-b]pyridin-5-yl)cyclopentanecarboxamide]",

# More lines, now with the values behind:
Compound,remaining activity at 0.2 µM (BLK),remaining activity at 0.2 µM (EGFR),pIC50 (EGFR),remaining activity at 0.2 µM (HER2),remaining activity at 0.2 µM (HER4),remaining activity at 0.2 µM (ITK),remaining activity at 0.2 µM (JAK3),pIC50 (JAK3),"BMX covalent adduct fraction, 30 min (kinase domain of BMX)","BMX covalent adduct fraction, 60 min (kinase domain of BMX)","BMX covalent adduct fraction, 120 min (kinase domain of BMX)","BMX covalent adduct fraction, 240 min (kinase domain of BMX)",covalent labeling of BMX (in words) (kinase domain of BMX; 1.5-fold molar excess),"native (unmodified) BMX fraction, 30 min (kinase domain of BMX)","native (unmodified) BMX fraction, 60 min (kinase domain of BMX)","native (unmodified) BMX fraction, 120 min (kinase domain of BMX)","native (unmodified) BMX fraction, 240 min (kinase domain of BMX)",also measured
"C=CC(=O)Nc1cccc(-c2c[nH]c3ncc(C(N)=O)cc23)c1 [Compound 10a, 3-(3-acrylamidophenyl)-1H-pyrrolo[2,3-b]pyridine-5-carboxamide]",82.4%,95.5%,< 5.00,97%,66.6%,90.8%,0.5%,> 10.00,99%,100%,100%,100%,complete labeling,,,,,
"C=CC(=O)Nc1cccc(-c2c[nH]c3ncccc23)c1 [Compound 9a, N-(3-(1H-pyrrolo[2,3-b]pyridin-3-yl)phenyl)acrylamide]",95.8%,> 100%,5.28,95%,66.1%,88.1%,0.8%,9.70,100%,100%,100%,100%,complete labeling,,,,,
